Assay results from patent US20260201008A1, “SECRETIN-DERIVED GLP1R SELECTIVE AGONISTS” (GUBRA A/S, priority 2023, published 2026).
Read-outs that look alike come from different tables or passages of the source. Numbered stars: 1 amine (or outer) side, 2 acyl side, 3 side chain; on linkers, the order of the positions; unused ones are H or OH. Square brackets hold non-standard residues; d marks the D form. Side chains are listed from the residue outwards. Peptide text beside a SMILES is read from it. * marks the point of attachment. C20 diacid = O=C(O)CCCCCCCCCCCCCCCCCCC(=O)*; γGlu = O=C(O)[C@H](CCC(=O)[*:2])N[*:1]; AEEA = NCCOCCOCC(=O)O; Aib = CC(C)(N)C(=O)O

Experiments:
[1] = Turbidity of crude library peptides (absorbance at 600 nm); assay type: physicochemical; conditions: Physical stability of peptides
How it was run: (§1)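 Values reflect mean ThT emission (ex 450, em 480 nm) over 72 h at 40° C, read every 10 min after 5 min shaking at 700 rpm, plus a single initial absorbance at 600 nm for turbidity. Peptides were at 267 μM, pH 4.0 acetate or pH 7.0 phosphate (50 mM), with 4 μM ThT.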

[2] = Fibril formation of crude library peptides (Thioflavin T); assay type: physicochemical; parameters: key: average ThT fluorescence emission at 480 nm (ex 450 nm), raw units; conditions: Physical stability of peptides
How it was run: as §1

[3] = target: GLP1R (Homo sapiens, UniProt P43220); experiment: hGLP1R potency, cAMP accumulation in CHO-K1 cells stably overexpressing hGLP1R; assay type: cell-based; parameters: host or cells: CHO-K1; conditions: for EC50: cAMP accumulation, CHO-K1 cells overexpressing hGLP1R; for SCTR EC50/GLP1R EC50 ratio: selectivity for hGLP1R over hSCTR, cAMP accumulation in CHO-K1 cells
Chain of GLP1R (P43220 24-463): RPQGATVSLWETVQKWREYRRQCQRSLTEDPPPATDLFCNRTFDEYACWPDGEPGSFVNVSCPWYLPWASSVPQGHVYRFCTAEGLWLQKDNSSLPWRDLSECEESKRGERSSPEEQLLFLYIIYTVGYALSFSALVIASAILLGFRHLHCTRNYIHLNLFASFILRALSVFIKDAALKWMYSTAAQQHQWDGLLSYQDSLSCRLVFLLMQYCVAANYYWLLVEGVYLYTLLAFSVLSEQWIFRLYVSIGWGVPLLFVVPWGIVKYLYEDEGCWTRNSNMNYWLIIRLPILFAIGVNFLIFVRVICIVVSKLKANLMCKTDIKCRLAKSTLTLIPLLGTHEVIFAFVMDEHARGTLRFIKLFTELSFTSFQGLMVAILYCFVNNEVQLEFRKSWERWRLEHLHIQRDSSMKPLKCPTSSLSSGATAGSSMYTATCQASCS
How it was run: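 Cells were plated in DPBS with 0.05% casein and 0.5 mM IBMX, then stimulated for 30 min at room temperature with test compound. cAMP was read by TR-FRET after one hour. EC50 came from variable-slope sigmoid nonlinear regression; purified peptides ran as 11-point 3-fold series, n=2.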

[4] = target: SCTR (Homo sapiens, UniProt P47872); experiment: hSCTR potency, cAMP accumulation in CHO-K1 cells stably overexpressing hSCTR; assay type: cell-based; parameters: alternatively Euroscreen ES-712-AF; FAST-0161L; host or cells: CHO-K1; conditions: cAMP accumulation, CHO-K1 cells overexpressing hSCTR
Chain of SCTR (P47872 23-440): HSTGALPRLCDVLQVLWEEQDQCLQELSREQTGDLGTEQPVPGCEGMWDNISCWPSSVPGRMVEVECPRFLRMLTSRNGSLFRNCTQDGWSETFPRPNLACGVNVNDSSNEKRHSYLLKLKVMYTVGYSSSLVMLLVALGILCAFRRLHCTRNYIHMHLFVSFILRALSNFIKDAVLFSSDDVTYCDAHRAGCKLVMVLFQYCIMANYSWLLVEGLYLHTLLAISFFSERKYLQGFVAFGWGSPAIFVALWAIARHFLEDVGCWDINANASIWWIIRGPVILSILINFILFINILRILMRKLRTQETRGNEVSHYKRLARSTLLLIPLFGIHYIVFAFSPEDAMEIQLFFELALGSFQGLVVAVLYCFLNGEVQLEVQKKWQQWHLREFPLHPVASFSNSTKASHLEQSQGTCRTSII
How it was run: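 Division-arrested CHO-K1 cells stably expressing hSCTR were plated in DPBS with 0.05% casein and 0.5 mM IBMX, then stimulated with test peptide for 30 min at room temperature. cAMP was read by HTRF after one hour. EC50 came from variable-slope sigmoidal nonlinear regression.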

[5] = read-out: hGLP1R pEC50 (converted)
[6] = read-out: hSCTR pEC50 (converted)

| Turbidity (pH 7) [1] | Fibril formation [2] | EC50 [3, 5] [nM] | SCTR EC50/GLP1R EC50 ratio [3] | EC50 [4, 6] [nM] | Selectivity ([3]; SCTR EC50/GLP1R EC50 ratio) | EC50 ([3]; read-out: pEC50 hGLPR1 (converted)) [nM] | EC50 ([4]; read-out: pEC50 hSCTR (converted)) [nM] | Structure (SMILES) |
| --- | --- | --- | --- | --- | --- | --- | --- | --- |
| 0.09 | 3306 | 0.0126 | 2569 | 31.6 |  |  |  | CC(C)C[C@H](NC(=O)[C@H](Cc1ccccc1)NC(=O)[C@H](CCCNC(=N)N)NC(=O)[C@H](CCC(N)=O)NC(=O)[C@H](CC(C)C)NC(=O)C(C)(C)NC(=O)[C@H](C)NC(=O)[C@H](CCC(=O)O)NC(=O)[C@H](CCC(=O)O)NC(=O)[C@H](CCCCNC(=O)COCCOCCNC(=O)COCCOCCNC(=O)CC[C@H](NC(=O)CCCCCCCCCCCCCCCCCCC(=O)O)C(=O)O)NC(=O)[C@H](CC(C)C)NC(=O)[C@@H](NC(=O)[C@H](CO)NC(=O)[C@@H](NC(=O)[C@H](CC(=O)O)NC(=O)[C@H](CO)NC(=O)[C@@H](NC(=O)[C@H](Cc1ccccc1)NC(=O)[C@@H](NC(=O)CNC(=O)[C@H](CCC(=O)O)NC(=O)C(C)(C)NC(=O)[C@@H](N)Cc1c[nH]cn1)[C@@H](C)O)[C@@H](C)O)C(C)C)C(C)C)C(=O)N[C@@H](CCC(=O)O)C(=O)N[C@@H](Cc1c[nH]cn1)C(=O)N[C@@H](CC(C)C)C(=O)N[C@H](C(N)=O)C(C)C [compound 138] (H-H[Aib]EGTFTSDVSVLK([AEEA-AEEA-γGlu-C20 diacid])EEA[Aib]LQRFLEHLV-NH2) |
| 0.08 | 9592 |  |  |  | 17346 | 0.0158 | 316 | CC(C)C[C@H](NC(=O)[C@H](Cc1ccccc1)NC(=O)[C@H](CCCNC(=N)N)NC(=O)[C@H](CCC(N)=O)NC(=O)[C@H](CCC(N)=O)NC(=O)[C@H](C)NC(=O)[C@H](C)NC(=O)[C@H](CCC(=O)O)NC(=O)[C@H](CCC(=O)O)NC(=O)[C@H](CCCCNC(=O)COCCOCCNC(=O)COCCOCCNC(=O)CC[C@H](NC(=O)CCCCCCCCCCCCCCCCCCC(=O)O)C(=O)O)NC(=O)[C@H](CC(C)C)NC(=O)[C@@H](NC(=O)[C@H](CO)NC(=O)[C@@H](NC(=O)[C@H](CC(=O)O)NC(=O)[C@H](CO)NC(=O)[C@@H](NC(=O)[C@H](Cc1ccccc1)NC(=O)[C@@H](NC(=O)CNC(=O)[C@H](CCC(=O)O)NC(=O)C(C)(C)NC(=O)[C@@H](N)Cc1c[nH]cn1)[C@@H](C)O)[C@@H](C)O)C(C)C)[C@@H](C)O)C(=O)N[C@@H](CCC(=O)O)C(=O)N[C@@H](Cc1c[nH]cn1)C(=O)N[C@@H](CC(C)C)C(=O)N[C@H](C(N)=O)C(C)C [compound 39] (H-H[Aib]EGTFTSDVSTLK([AEEA-AEEA-γGlu-C20 diacid])EEAAQQRFLEHLV-NH2) |
| 0.08 | 47022 | 0.0794 | 51215 | 3980 |  |  |  | CC(C)C[C@H](NC(=O)[C@H](Cc1ccccc1)NC(=O)[C@H](CCCNC(=N)N)NC(=O)[C@H](CCC(N)=O)NC(=O)[C@H](C)NC(=O)[C@H](C)NC(=O)[C@H](C)NC(=O)[C@H](Cc1ccccc1)NC(=O)[C@H](CCC(=O)O)NC(=O)[C@H](CCCCNC(=O)COCCOCCNC(=O)COCCOCCNC(=O)CC[C@H](NC(=O)CCCCCCCCCCCCCCCCCCC(=O)O)C(=O)O)NC(=O)[C@H](CC(C)C)NC(=O)[C@H](Cc1ccccc1)NC(=O)[C@H](CO)NC(=O)[C@@H](NC(=O)[C@H](CC(=O)O)NC(=O)[C@H](CO)NC(=O)[C@@H](NC(=O)[C@H](Cc1ccccc1)NC(=O)[C@@H](NC(=O)CNC(=O)[C@H](CCC(=O)O)NC(=O)C(C)(C)NC(=O)[C@@H](N)Cc1c[nH]cn1)[C@@H](C)O)[C@@H](C)O)C(C)C)C(=O)N[C@@H](CCC(=O)O)C(=O)N[C@@H](Cc1c[nH]cn1)C(=O)N[C@@H](CC(C)C)C(=O)N[C@H](C(N)=O)C(C)C [compound 84] (H-H[Aib]EGTFTSDVSFLK([AEEA-AEEA-γGlu-C20 diacid])EFAAAQRFLEHLV-NH2) |
